The subject of assay [1] is RSV strain A2. In words: Virus yield reduction in MA-104 cells. The class given is cell-based, Respiratory syncytial virus. The following applies: RSV yield reduced by 90%, MOI = 0.005, added twice daily for 4 d. An excerpt: (§1) A comparison of the efficacies of spA4 -antiRSV3'3'T/(8281-8299) treatment and conventional ribarvirin treatment can be obtained by determining the RSV-inhibitory concentration and the cytotoxic concentration of each compound. Cultures of the human laryngeal carcinoma cell line HEp-2 and the […] renal cell line MA-104 were established and infected with an MOI=0.005. Cultures were fed twice daily. Treatment with either ribavirin or spA4 -antiRSV3'3'T/(8281-8299) was begun simultaneously with infection and continued for four days. Treatment was then withdrawn and the test read on day 5. The effects of treatment on RSV infection were reported as 1) an EC50, the concentration at which there was a 50% reduction in the observable cytopathic effects of infection and 2) an EC90, the concentration at which there was a 90% reduction in viral production. […] Therapeutic efficacy is estimated by the Selectivity Index, which is the ratio of IC50 /EC50.
(§2) as determined with RSV strain A2, MOI = 0.005
(§3) Fresh medium and oligo or ribavirin added twice daily for 4 d and test read
EC90 effective concentration to reduce RSV yield by 90%.

In assay [2] the test system is RSV M2 RNA. In words: RT-PCR of M2 RNA from RSV-infected 9HTE cells. The class given is cell-based, Respiratory syncytial virus. The following applies: RNA at 8 h post-infection, M.O.I.=10. How it is done:
To determine if RSV RNA levels correlated with antiviral activity, RT-PCR analysis was performed on RNA isolated from RSV-infected and uninfected 9HTE cells with and without treatment with spA4 -antiRSV3'3'T/(8281-8299) or spA4 -antiRSV3'3'A/(8530-8547). An M2 RNA sequence in RSV (from nucleotides 7879 to 8465) was converted to cDNA and amplified by PCR. M2 RNA from the RSV-infected cells produced an RT-PCR DNA product that was clearly visible. […] Levels of GAPDH transcripts were similar in all of these RNA preparations.
RNA was collected from 2×10^5 9HTE cells at 8 h post-infection (M.O.I.=10) by RNAzol treatment as described by the manufacturer (Tel-Test, Inc, Freindswood, Tex.). RNA was isolated after 8 h to limit RSV replication to a single cycle. Isolated RNA (≈1 μg) was incubated with 100 pmoles of the appropriate downstream (-) primer listed below or 100 pmoles of random hexamer (used for glyceraldehyde-3-phosphatedehydrogenase, GAPDH, mRNA only). RNA and primers were heated to 70° C. for 10 min then cooled rapidly on ice for 5 min. […]
25 μl Hot-Start upper buffer contained 5 U Taq DNA polymerase (GibcoBRL) and 1/10th of the cDNA from the RT reaction. […] Aliquots of the RT/PCR mixtures were analyzed on 1% agarose/TBE gels.

The subject of assay [3] is RSV strain A2. In words: Antiviral activity in Hep-2 cells, neutral red (reduction of RSV-induced CPE). Type of assay: cell-based, Respiratory syncytial virus. The following applies: neutral red, MOI = 0.005, added twice daily for 4 d, read on d 5.
Excerpt: as §1
determined with RSV strain A2, MOI = 0.005
as §3
(§4) EC50 effective concentration to reduce RSV-induced CPE by 50%.

Assay [4] has as its system Hep-2 Cells. In words: Cytotoxicity to Hep-2 cells (visual and dye uptake, rapidly dividing cells). The class given is cell-based, human.
Excerpt: as §1
(§5) IC50 50% inhibitory concentration for cytotoxicity to cells (visual

The test system of assay [5] is MA-104 Cells. In words: Cytotoxicity to MA-104 cells (visual and dye uptake, rapidly dividing cells). Type of assay: cell-based, murine.
Excerpt: as §1, §5

Assay [6] relates to RSV strain A2. In words: Antiviral activity in MA-104 cells, visual CPE. The following applies: visual CPE, MOI = 0.005, added twice daily for 4 d, read on d 5. The class given is cell-based, Respiratory syncytial virus.
Excerpt: as §1, §2, §3, §4

Assay [7] deals with RSV strain A2. In words: Inhibition of RSV replication in RSV-infected 9HTE cells, virus plaque assay on CV-1 cells at 36 h post-infection. The following applies: for % Inhibition of RSV replication: 9HTE cells, M.O.I. 2.0, 36 hrs post-infection. Type of assay: cell-based, Respiratory syncytial virus. An excerpt: To develop 2-5A antisense chimeras with the potential to block RSV replication, an oligonucleotide binding site in the viral RNA polymerase (RSV L) mRNA, which encodes a low abundance message that is absolutely required for RSV replication was selected. The first chimera synthesized and evaluated was pA4 -antiRSV/(8490-8509). The binding sites for the chimeric oligonucleotide's antisense domain are to the transcripts of nucleotides 8490-8509 in the RSV genome, which spans the translation start codon for the L protein, and to nucleotides 8490-8509 of the antigenomic strand (the template for reproduction of the genome). Since to function as an effective treatment, a candidate agent must be able to inhibit viral replication subsequent to diagnosis, the anti-RSV effect of the 2-5A antisense chimera was determined on human tracheal epithelial cells, 9HTE, with treatments beginning either 4 h before RSV infection (pre-/post-infection treatments) or 2 h following infection (post-infection treatments). In the post-infection treatments, pA4 -antiRSV/([…]), was added at t+2, t+14 and t+26, (numbers represent time in h relative to time of infection, 0) For pre-infection treatment, pA4 -antiRSV/(8490-8509) (10 μM final concentration), was added at t-4, and t0 in addition to […]; t+14 and t+26. Virus harvested from control and oligonucleotide-treated 9HTE cells was measured by infecting CV-1 cells and subsequently counting viral plaques. […] On the basis of these experiments, all subsequent experiments were performed with post-infectiontreatments only. Additionally, these experiments indicate the potential use of these compounds as a treatment for active infection as compared to a prophylactic measure.
The human tracheal epithelial cell line, 9HTE, (Gruenert et al., 1988) and CV-1 cells, (American Type Culture Collection, Rockville, Md., CCI#70) a green monkey kidney cell line which is highly permissive to RSV infection, were cultured in minimal essential medium (MEM) supplemented with 10% (v/v) fetal bovine serum (FBS), 2 mM L-glutamine, 1× MEM amino acids solution, 1× MEM non-essential amino acids solution, 100 U/ml penicillin, 100 μg/ml streptomycin and 0.25 μg/ml amphotericin B ("culture medium") (all reagents from Gibco BRL, Bethesda, Md.). RSV strain A2 (ATCC No. VR1302) was propagated in CV-1 cells. CV-1 monolayers were infected at a multiplicity of infection (M.O.I.) of 0.2 and cultured 46 h in MEM, 2% FBS, 1× Penicillin/Streptomycin (PS) in 5% CO2, 95% O2 at 37° C. Cells were then washed 2 times in MEM and subsequently covered in MEM, 2% FBS, 1× PS, 50 mM HEPES (pH7.5), 100 mM Mg(SO4). After 2 h at 37° C., cells were scraped and sonicated as previously described (Panuska et al., 1995). Aliquots (1 ml each) of cell sonicates were flash frozen in ethanol/dry ice within 20 min of scraping. Several aliquots were then thawed and titered by a plaque assay on CV-1 cells as previously described (Cirino et al., 1993). The range of virus yield from this procedure was 2 to 7×10^6 plaque forming units (pfu) per ml.
Infection of 9HTE cells was performed as previously described (Merolla et al., 1994). Briefly, confluent monolayers were exposed to RSV diluted in MEM, 2% FBS, for 2 h at 37° C. in 5% CO2, 95% O2. After exposure, cells were washed two times with serum-free MEM media and then fresh culture media (with 10% FBS) was added. Oligonucleotides were either added 4 h prior to infection (t-4) or immediately after infection (t+2) and also at t+14 and t+26. Cells were harvested for plaque assays at 36 h post-infection to determine viral titers as previously described (Cirino et al., 1993). Cells were washed twice to remove any residual antisense and were then scraped in MEM containing 2% FBS, 1× PS. 9HTE cells were sonicated for 20 sec on ice then the extracts were serially diluted and transferred to a confluent monolayer of CV-1 for quantitation of infectious viral particles. […]

As to “spA2'p(A2'p)3 -[(Bu)p]2 -(5'atg gtt att tgg gtt gtt3'-3't5') [spA4-antiRSV3'-3'T/(8281-8299)]”, in assay [1], the EC90 is 0.02 µM. For the same substance, the “M2 RNA RT-PCR product” value in assay [2] was “no M2 RNA detected”. The EC50 in assay [3] was 0.3 µM; in assay [6] it was 0.02 µM. For the same substance, the IC50 in assay [4] and in assay [5] was greater than 10 µM each time. The “% Inhibition of RSV replication” value in assay [7] (3.3 μM oligonucleotide/treatment at t+2, t+14, t+26 h) was 91.3%; in assay [7] (6.6 μM oligonucleotide/treatment at t+2, t+14, t+26 h) it was 97%; in assay [7] (9.9 μM oligonucleotide/treatment at t+2, t+14, t+26 h), 99.6%. In addition, in assay [7] (spA4-linked versus spA2-linked oligonucleotide), the “comparison of anti-RSV activities (FIG. 3)” value is “greater potency”.

As a reminder, the EC90 is the concentration at which the effect reaches the 90% level. A lower EC90 goes with greater potency. In general, EC50 refers to the concentration at which the effect is half-maximal. Read a low EC50 as an effect from little substance. Broadly, the IC50 is the concentration needed to halve the response being measured.
